{"source": "patent US20170367394A1", "about": "“PROCESS FOR INCREASING THE STABILITY OF A COMPOSITION COMPRISING POLYUNSATURATED OMEGA-6 FATTY ACIDS” (Evonik Degussa GmbH, priority 2014, published 2017)", "format_in_all_cases": "physicochemical", "key": {"[1]": {"assay": "Oligomer content by gel-chromatography (GPC, RI detector)", "details": "as obtained", "protocol": "Oligomeric PUFA constituents as well as their derivatives (collectively referred to as oligomer content) were quantified by gel-chromatographic means (GPC, styroldivinylbenzene-phase with tetrahydrofuran containing trifluoroacetic acid used as eluent). A refractive index (RI) detector was used for detection. Due to the fact that specific response factors of the constituents of the samples were unknown, proportions were calculated based upon fractional proportions of the total area of chromatograms."}, "[2]": {"assay": "Anisidine Value (AV, secondary oxidation products) according to Ph. Eur. 2.5.36, before and after storage at 50° C. exposed to air", "details": "for Anisidine Value: as obtained / as supplied (experiments 1-4)", "protocol": "An exemplary procedure for determining the Anisidine Value (AV) of a sample is performed as follows:\nThe anisidine value is defined as 100 times the optical density measured in a 1 cm cell of a solution containing 1 g of the substance to be examined in 100 ml of a mixture of solvents and reagents according to the following method. Carry out the operations as rapidly as possible, avoiding exposure to actinic light.\nTest solution (a): Dissolve 0.500 g of the substance to be examined in trimethylpentane and dilute to 25.0 ml with the same solvent.\nTest solution (b): To 5.0 ml of test solution (a) add 1.0 ml of a 2.5 g/I solution of p-anisidine in glacial acetic acid, shake and store protected from light.\nReference solution: To 5.0 ml of trimethylpentane add 1.0 ml of a 2.5 g/I solution of p-anisidine in glacial acetic acid, shake and store protected from light. Measure the absorbance of test solution (a) at the maximum at 350 nm using trimethylpentane as the compensation liquid. Measure the absorbance of test solution (b) at 350 nm exactly 10 min after its preparation, using the reference solution as the compensation liquid. Calculate the anisidine value (AV) from the expression:\n(§1) Primary oxidation products (hydroperoxides at double bonds) were quantified by determining the Peroxide Value (PV) according to Ph. Eur. 2.5.5 (01/2008:20505). Secondary oxidation products (carbonyl compounds) were quantified by determining the Anisidine Value (AV) according to Ph. Eur. 2.5.36 (01/2008:20536).\n(§2) 30 g each of the liquid ethyl arachidonic acid glycerin ester and the gamma-linolenic acid ethyl ester used in experiments 1 and 2 as well as of the arachidonic acids and the gamma-linolenic acid obtained in experiments 1 and 2 were filled into 500 ml Schott Duran glass bottles.\n(§3) About 30 g each of the solid lysine-salts ARA-Lys and GLA-Lys obtained in experiments 3 and 4 were filled Schott Duran glass bottles.\n(§4) All of the bottles were placed together with opened lids in a drying oven with an opened ventilation valve at 50° C. and stored in the dark under these conditions for 81 days."}, "[3]": {"assay": "Peroxide Value (PV, primary oxidation products) according to Ph. Eur. 2.5.5, before and after storage at 50° C. exposed to air", "protocol": "An exemplary procedure for determining the Peroxide Value (PV) of a sample is performed as follows:\nPeroxide value=(S−B)*N thiosulfate*1000/weight of sample\nas §1, §2, §3, §4"}, "[4]": {"details": "t = 81 days, open bottles, 50° C., exposed to air, in the dark"}}, "data": [{"compound": "Gamma-Linolenic acid-L-Lysine Salt [GLA-Lys]", "values": [{"measurement": "Oligomer content", "setting": "[1]", "result": 0.6, "unit": "area-%"}, {"measurement": "Anisidine Value", "setting": "[2]", "result": 5.4}, {"measurement": "Anisidine Value (AV)", "setting": "[2]; t = 0, before storage", "result": 5.4, "unit": "A/g"}, {"measurement": "Anisidine Value (AV)", "setting": "[2]; [4]", "result": "<1", "unit": "A/g"}, {"measurement": "Peroxide Value", "setting": "[3]; as obtained (experiments 1-4)", "result": 1.0, "unit": "mmol/kg"}, {"measurement": "Peroxide Value (PV)", "setting": "[3]; t = 0, before storage", "result": 1.0, "unit": "mmol/kg"}, {"measurement": "Peroxide Value (PV)", "setting": "[3]; [4]", "result": "<1", "unit": "mmol/kg"}]}, {"compound": "CCCCC/C=C\\C/C=C\\C/C=C\\C/C=C\\CCCC(=O)O", "note": "[ARA-OH, all-cis-5,8,11,14-eicosatetraenoic acid]", "values": [{"measurement": "Anisidine Value", "setting": "[2]", "result": 4.2}, {"measurement": "Anisidine Value (AV)", "setting": "[2]; t = 0, before storage", "result": 4.2, "unit": "A/g"}, {"measurement": "Anisidine Value (AV)", "setting": "[2]; [4]", "result": 211, "unit": "A/g"}, {"measurement": "Peroxide Value", "setting": "[3]; as obtained (experiments 1-4)", "result": 7.2, "unit": "mmol/kg"}, {"measurement": "Peroxide Value (PV)", "setting": "[3]; t = 0, before storage", "result": 7.2, "unit": "mmol/kg"}, {"measurement": "Peroxide Value (PV)", "setting": "[3]; [4]", "result": 5.8, "unit": "mmol/kg"}]}, {"compound": "CCCCC/C=C\\C/C=C\\C/C=C\\CCCCC(=O)OCC", "note": "[GLA-OEt, gamma-linolenic acid ethyl ester]", "values": [{"measurement": "Anisidine Value", "setting": "[2]", "result": 19.1}, {"measurement": "Anisidine Value (AV)", "setting": "[2]; t = 0, before storage", "result": 19.1, "unit": "A/g"}, {"measurement": "Anisidine Value (AV)", "setting": "[2]; [4]", "result": 1237, "unit": "A/g"}, {"measurement": "Peroxide Value", "setting": "[3]; commercially available starting material as supplied", "result": 52.1, "unit": "mmol/kg"}, {"measurement": "Peroxide Value (PV)", "setting": "[3]; t = 0, before storage", "result": 52.1, "unit": "mmol/kg"}, {"measurement": "Peroxide Value (PV)", "setting": "[3]; [4]", "result": 86.3, "unit": "mmol/kg"}]}, {"compound": "Arachidonic acid-L-Lysine Salt [ARA-Lys]", "values": [{"measurement": "Oligomer content", "setting": "[1]", "result": 1.1, "unit": "area-%"}, {"measurement": "Anisidine Value", "setting": "[2]", "result": 1}, {"measurement": "Anisidine Value (AV)", "setting": "[2]; t = 0, before storage", "result": 1, "unit": "A/g"}, {"measurement": "Anisidine Value (AV)", "setting": "[2]; [4]", "result": "<1", "unit": "A/g"}, {"measurement": "Peroxide Value", "setting": "[3]; as obtained (experiments 1-4)", "result": "< 1", "unit": "mmol/kg"}, {"measurement": "Peroxide Value (PV)", "setting": "[3]; t = 0, before storage", "result": "<1", "unit": "mmol/kg"}, {"measurement": "Peroxide Value (PV)", "setting": "[3]; [4]", "result": "<1", "unit": "mmol/kg"}]}, {"compound": "CCCCC/C=C\\C/C=C\\C/C=C\\CCCCC(=O)O", "note": "[GLA-OH, gamma-linolenic acid]", "values": [{"measurement": "Oligomer content", "setting": "[1]", "result": 0.3, "unit": "area-%"}, {"measurement": "Anisidine Value", "setting": "[2]", "result": 7.6}, {"measurement": "Anisidine Value (AV)", "setting": "[2]; t = 0, before storage", "result": 7.6, "unit": "A/g"}, {"measurement": "Anisidine Value (AV)", "setting": "[2]; [4]", "result": 137, "unit": "A/g"}, {"measurement": "Peroxide Value", "setting": "[3]; as obtained (experiments 1-4)", "result": 5.6, "unit": "mmol/kg"}, {"measurement": "Peroxide Value (PV)", "setting": "[3]; t = 0, before storage", "result": 5.6, "unit": "mmol/kg"}, {"measurement": "Peroxide Value (PV)", "setting": "[3]; [4]", "result": 1.3, "unit": "mmol/kg"}]}]}
